Measured values reported in patent US5041535A, “Antileukemic and immunostimulant peptides” (Richter Gedeon Vegyeszeti Gyar Rt., priority 1986, dated 1991).
Square brackets hold non-standard residues; d marks the D form. Peptide text beside a SMILES is read from it. pGlu = O=C1CC[C@@H](C(=O)O)N1

Columns and labels:
[1] = test system: inflammation induced by oxozolone; assay: Dermatitis test induced with oxazolone; assay type: in vivo, CFLP mice; details: 24th hour after treatment, ear weight increase
Procedure: In this test a modified pharmacological model of D. P. Evans et al. [Br. J. Pharmac. 43, 403-488 (1971)] is used.
The abdominal skin of male CFLP mice weighing 20-22 g is painted after the removal of the hair with 0.1 ml of a 2% solution of oxazolon (4-ethoxymethyl-2-phenyl-oxazoline, manufacturer Sigma) in sunflower oil. On the right ear of the test animals 7 days after sensitization (painting) inflammatory reaction is induced with the aid of 10 μl of a 2% acetonous oxazolone solution and simultaneously the animals are treated with a 1 or 2 mg/kg, respectively, i.p. does of the test compound. The test compound is dissolved in a physiological sodium chloride solution in such a concentration that the active ingredient content corresponding to the dose should be dissolved in a volume of 0.5 ml/10 g animal body weight.
The antiinflammatory effect is determined as follows: the animals are sacrificed in the 24th hour after treatment, whereupon the right and left ears are cut off. The percentual weight increase of the right ear related to the left ear is characteristic of the rate of inflammation induced during the test, while the percentual reduction of weight increase of the treated animals related to the untreated control is proportional to the antiinflammatory effect. In Table 4 the reduction of weight increase (antiinflammatory effect) achieved by the test compounds is disclosed, as the percentage of the untreated control.

[2] = test system: human K-562 erythroleukaemical cell-line; assay: Inhibition of the proliferation of tumor cells (K-562); assay type: cell-based; details: 72nd hour after treatment, percentage of the control
Procedure: In the test human K-562 erythroleukaemical cell-line is used (Karolinska Institute, Stockholm). Incubation is carried out in a nutrient medium designated RPMI-1640 (manufactured by Flow, Great Britain) comprising 10% of foetal calf serum, at a temperature of 37° C., in a humidified incubator containing 3% of carbon dioxide, in plastic dishes. Every point of measurement corresponds to the average of the data measured in three dishes, each. At the beginning of the test the dilution amounts to 0.5×10^5 cells/ml. Treatment is carried out 24 hours after dilution in a manner that the medium is not changed after the treatment. The cells are counted for 96 hours after dilution every 24th hour wit the aid of a Buerker chamber.
Under the effect of the peptide in the 24th hour after treatment the cell number stagnates and later it increases to a very small extent. […] The tumor-cell division inhibiting effect of the new peptides is summarized in Table 1 (72 hours after treatment). The rate of inhibition is expressed in the percentage of the control. It clearly appears from the data of the Table that the tested peptides inhibit the proliferation of human K-562 erythroleukaemic cells.

[3] = test system: antibody production inhibited by cyclophosphamide; assay: Effect on antibody production in mice treated with cyclophosphamide; assay type: in vivo, CELP mice; details: cyclophosphamide 100 mg/kg i.p., titer on 6th day
Procedure: The effect on in vivo antibody production is tested on CELP mice treated with a 100 mg/kg body weight dose of cyclophosphamide {2-[bis-(2-chloroethyl)-amino]-tetrahydro-2H-1,3,2-oxaza -phosphorine-2-oxide; method: Z. Naturforsch. 35B, 1476 (1980)}. The mice are intraperitoneally immunized with a 1% sheep erythrocyte suspension previously washed three times with a 0.9% sodium chloride solution after 10 minutes of centrifuging at 2,500 r.p.m. Simultaneously with immunization carried out on the 0. day, the activity of the immune system is suppressed by means of treatment with a 100 mg/kg i.p. does of cyclophosphamide. On the 3rd day of the test the peptides are administered to the animals intraperitoneally in a dose of 5, 50 and occasionally 100 mg/kg respectively. On the 6th day of the test blood is taken retroorbitally from the mice and the anti-sheep erythrocyte titer of the serum is determined. […] The effect of the peptides is expressed as percentage of the relief of inhibition (G %).

[4] = test system: lymphocytes inhibited by Azathioprine; assay: E-rosetta test inhibited by Azathioprine; assay type: cell-based
Procedure: Inhibition of the proliferation of T-lymphocytes is tested in the E-rosetta test inhibited by Azathioprine [6-(1-methyl-4-nitroimidazole-5-yl-thio)-purine; Thymus 1, 195 (1980)].
To 200 μl of a healthy lymphocyte cell-suspension 500 μl/ml of Azathioprine and 200 μl of a separate dilution of the test compound in HBBS buffer (manufacturer: Flow, Great Britain) are added (concentration range: 10^-3 to […]). The mixture is incubated at a temperature of 37° C. in air containing 5% of carbon dioxide for 60 minutes, whereupon 200 μl of a 1% sheep erythrocyte suspension are added. The mixture thus-obtained is centrifuged at 1,000 r.p.m. for 5 minutes, the supernatant is removed by decanting and in the suspension the lymphocytes forming E-rosetta are counted under a microscope from at least 400 cells.
Under the effect of the peptides the E-rosetta forming activity of the lymphocytes inhibited by Azathioprine increases to different extent. […] It appears from the data of Table 2 that the tested peptides increase the E-rosetta forming capacity of inhibited lymphocytes, i.e. the peptides of the present invention show immunostimulant effect.

[5] = peptide 5 mg/kg i.p. on 3rd day
[6] = peptide 50 mg/kg i.p. on 3rd day

NCCCC[C@H](NC(=O)[C@H](CCCCN)NC(=O)[C@H](CCC(=O)O)NC(=O)[C@@H](N)CCCCN)C(=O)O [Peptide 10, Lys-GIu-Lys-Lys-OH] (H-KEKK-OH)
Inhibition of inflammation induced by oxozolone, inhibition as % of control ([1]; 1 mg/kg i.p.): 22%
Inhibition of inflammation induced by oxozolone, inhibition as % of control ([1]; 2 mg/kg i.p.): 79%
Inhibition of the proliferation of K-562 cells, inhibition (c %) ([2]; peptide 1/ug/ml): 28%
Inhibition of the proliferation of K-562 cells, inhibition (c %) ([2]; peptide 10/ug/ml): 40%
Restoration of primary immune answer, G % [3, 5]: 15.5%
Restoration of primary immune answer, G % [3, 6]: 37.7%
Relief of inhibition (R %) of E-rosetta forming activity ([4]; peptide 10^-3 mole/l): 22.9%
Relief of inhibition (R %) of E-rosetta forming activity ([4]; peptide 10^-5 mole/l): 16.3%
Relief of inhibition (R %) of E-rosetta forming activity ([4]; peptide 10^-7 mole/l): 25.2%
Relief of inhibition (R %) of E-rosetta forming activity ([4]; peptide 10^-9 mole/l): 21.1%
Relief of inhibition (R %) of E-rosetta forming activity ([4]; peptide 10^-11 mole/l): 26.6%

NCCCC[C@H](NC(=O)[C@H](CCC(=O)O)NC(=O)[C@@H]1CCC(=O)N1)C(N)=O [Peptide 2, Glp-Glu-Lys-NH2] ([pGlu]-Glu-Lys-NH2)
Inhibition of the proliferation of K-562 cells, inhibition (c %) ([2]; peptide 1/ug/ml): 40%
Inhibition of the proliferation of K-562 cells, inhibition (c %) ([2]; peptide 10/ug/ml): 55%
Restoration of primary immune answer, G % [3, 5]: 23.0%
Restoration of primary immune answer, G % [3, 6]: 3.0%
Relief of inhibition (R %) of E-rosetta forming activity ([4]; peptide 10^-3 mole/l): 25.4%
Relief of inhibition (R %) of E-rosetta forming activity ([4]; peptide 10^-5 mole/l): 20.2%
Relief of inhibition (R %) of E-rosetta forming activity ([4]; peptide 10^-7 mole/l): 31.7%
Relief of inhibition (R %) of E-rosetta forming activity ([4]; peptide 10^-9 mole/l): 24.3%
Relief of inhibition (R %) of E-rosetta forming activity ([4]; peptide 10^-11 mole/l): 37.1%

N=C(N)NCCC[C@H](N)C(=O)N[C@@H](CCCCN)C(=O)N[C@@H](CC(=O)O)C(N)=O [Peptide 4, Arg-Lys-Asp-NH2] (H-Arg-Lys-Asp-NH2)
Inhibition of inflammation induced by oxozolone, inhibition as % of control ([1]; 1 mg/kg i.p.): 27%
Inhibition of the proliferation of K-562 cells, inhibition (c %) ([2]; peptide 1/ug/ml): 25%
Inhibition of the proliferation of K-562 cells, inhibition (c %) ([2]; peptide 10/ug/ml): 50%
Restoration of primary immune answer, G % ([3]; peptide 100 mg/kg i.p. on 3rd day): 28.5%
Relief of inhibition (R %) of E-rosetta forming activity ([4]; peptide 10^-3 mole/l): 29.7%
Relief of inhibition (R %) of E-rosetta forming activity ([4]; peptide 10^-5 mole/l): 30.0%
Relief of inhibition (R %) of E-rosetta forming activity ([4]; peptide 10^-7 mole/l): 18.7%
Relief of inhibition (R %) of E-rosetta forming activity ([4]; peptide 10^-9 mole/l): 23.9%
Relief of inhibition (R %) of E-rosetta forming activity ([4]; peptide 10^-11 mole/l): 18.5%

N=C(N)NCCC[C@H](N)C(=O)N[C@@H](CCCCN)C(=O)N[C@@H](CCC(=O)O)C(=O)O [Peptide 5, Arg-Lys-GIu-OH] (H-Arg-Lys-Glu-OH)
Inhibition of the proliferation of K-562 cells, inhibition (c %) ([2]; peptide 1/ug/ml): 40%
Inhibition of the proliferation of K-562 cells, inhibition (c %) ([2]; peptide 10/ug/ml): 48%
Restoration of primary immune answer, G % [3, 5]: 61.5%
Restoration of primary immune answer, G % [3, 6]: 76.9%
Relief of inhibition (R %) of E-rosetta forming activity ([4]; peptide 10^-3 mole/l): 24.5%
Relief of inhibition (R %) of E-rosetta forming activity ([4]; peptide 10^-5 mole/l): 24.6%
Relief of inhibition (R %) of E-rosetta forming activity ([4]; peptide 10^-7 mole/l): 24.7%
Relief of inhibition (R %) of E-rosetta forming activity ([4]; peptide 10^-9 mole/l): 24.0%
Relief of inhibition (R %) of E-rosetta forming activity ([4]; peptide 10^-11 mole/l): 27.5%

CC(C)C[C@H](NC(=O)[C@@H](N)CCC(=O)O)C(=O)N[C@H](C(=O)N[C@@H](C)C(=O)O)C(C)C [Peptide 13, GIu-Leu-VaI-AIa-OH] (H-ELVA-OH)
Inhibition of inflammation induced by oxozolone, inhibition as % of control ([1]; 1 mg/kg i.p.): 40%
Inhibition of the proliferation of K-562 cells, inhibition (c %) ([2]; peptide 1/ug/ml): 55%
Inhibition of the proliferation of K-562 cells, inhibition (c %) ([2]; peptide 10/ug/ml): 65%
Restoration of primary immune answer, G % [3, 5]: 20.9%
Restoration of primary immune answer, G % [3, 6]: 32.8%

CC(C)[C@H](NC(=O)[C@H](CC(=O)O)NC(=O)[C@H](CCCCN)NC(=O)[C@@H](N)CCCN=C(N)N)C(=O)N[C@@H](Cc1ccc(O)cc1)C(=O)O [A, Arg--Lys--Asp--Val--Tyr, reference compound] (H-RKDVY-OH)
Inhibition of the proliferation of K-562 cells, inhibition (c %) ([2]; peptide 10/ug/ml): 32%
Relief of inhibition (R %) of E-rosetta forming activity ([4]; peptide 10^-3 mole/l): 31.7%
Relief of inhibition (R %) of E-rosetta forming activity ([4]; peptide 10^-5 mole/l): 29.3%
Relief of inhibition (R %) of E-rosetta forming activity ([4]; peptide 10^-7 mole/l): 38.7%
Relief of inhibition (R %) of E-rosetta forming activity ([4]; peptide 10^-9 mole/l): 30.0%
Relief of inhibition (R %) of E-rosetta forming activity ([4]; peptide 10^-11 mole/l): 19.4%

CC(C)C[C@H](N)C(=O)N1CCC[C@H]1C(=O)N[C@@H](C)C(=O)NCC(=O)O [Peptide 14, Leu-Pro AIa-Gly-OH] (H-LPAG-OH)
Inhibition of inflammation induced by oxozolone, inhibition as % of control ([1]; 1 mg/kg i.p.): 55%
Inhibition of the proliferation of K-562 cells, inhibition (c %) ([2]; peptide 1/ug/ml): 45%
Inhibition of the proliferation of K-562 cells, inhibition (c %) ([2]; peptide 10/ug/ml): 70%
Restoration of primary immune answer, G % [3, 5]: 34.0%
Restoration of primary immune answer, G % [3, 6]: 56.8%

CC(C)C[C@H](N)C(=O)N[C@H](C(=O)N[C@@H](C)C(=O)O)C(C)C [Peptide 7, Leu-VaI-AIa-OH] (H-Leu-Val-Ala-OH)
Inhibition of the proliferation of K-562 cells, inhibition (c %) ([2]; peptide 1/ug/ml): 38%
Inhibition of the proliferation of K-562 cells, inhibition (c %) ([2]; peptide 10/ug/ml): 52%
Restoration of primary immune answer, G % [3, 5]: 73.3%
Restoration of primary immune answer, G % [3, 6]: 100.0%

N=C(N)NCCC[C@H](N)C(=O)N[C@@H](CCCCN)C(=O)N[C@@H](CCC(=O)O)C(N)=O [Peptide 3, Arg-Lys-Glu-NH2] (H-Arg-Lys-Glu-NH2)
Inhibition of the proliferation of K-562 cells, inhibition (c %) ([2]; peptide 1/ug/ml): 40%
Inhibition of the proliferation of K-562 cells, inhibition (c %) ([2]; peptide 10/ug/ml): 52%
Restoration of primary immune answer, G % [3, 5]: 78.1%
Restoration of primary immune answer, G % [3, 6]: 47.6%
Relief of inhibition (R %) of E-rosetta forming activity ([4]; peptide 10^-3 mole/l): 24.3%
Relief of inhibition (R %) of E-rosetta forming activity ([4]; peptide 10^-5 mole/l): 22.6%
Relief of inhibition (R %) of E-rosetta forming activity ([4]; peptide 10^-7 mole/l): 15.6%
Relief of inhibition (R %) of E-rosetta forming activity ([4]; peptide 10^-9 mole/l): 24.8%
Relief of inhibition (R %) of E-rosetta forming activity ([4]; peptide 10^-11 mole/l): 17.0%

CC(C)[C@H](NC(=O)[C@H](CC(=O)O)NC(=O)[C@H](CCCCN)NC(=O)[C@@H](N)CCCNC(=N)N)C(=O)O [B, Arg--Lys--Asp--Val, reference compound] (H-RKDV-OH)
Inhibition of the proliferation of K-562 cells, inhibition (c %) ([2]; peptide 10/ug/ml): 4%
Relief of inhibition (R %) of E-rosetta forming activity ([4]; peptide 10^-3 mole/l): 35.4%
Relief of inhibition (R %) of E-rosetta forming activity ([4]; peptide 10^-5 mole/l): 35.4%
Relief of inhibition (R %) of E-rosetta forming activity ([4]; peptide 10^-7 mole/l): 46.4%
Relief of inhibition (R %) of E-rosetta forming activity ([4]; peptide 10^-9 mole/l): 32.5%
Relief of inhibition (R %) of E-rosetta forming activity ([4]; peptide 10^-11 mole/l): 34.0%
